Data reported in PubChem BioAssay AID248 (DTP/NCI, 2004).
“And” between values parts separate entries of the source, which are not always exact repeats. Equal entries are not always repeated. Inconclusive results and toxic doses are left out.

System: L1210 leukemia ip in BDF1 mice, survival T/C
Assay: NCI In Vivo Anticancer Drug Screen. Data for tumor model L1210 Leukemia (intraperitoneal) in B6D2F1 (BDF1) mice
Settings: higher = longer survival
Outline: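 Transplantable tumor model; survival measured in treated vs vehicle control mice. Value = treated/control.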

[1] = endpoint: mean survival time, dose: 75.0 mg/kg/injection, schedule: Q01DX001 (ip), vehicle: saline
[2] = endpoint: mean survival time, dose: 100.0 mg/kg/injection, schedule: Q04DX003 (ip), vehicle: saline
[3] = endpoint: mean survival time, dose: 200.0 mg/kg/injection, schedule: Q01DX009 (ip), vehicle: saline
[4] = endpoint: mean survival time, dose: 400.0 mg/kg/injection, schedule: Q04DX003 (ip), vehicle: saline
[5] = endpoint: mean survival time, dose: 100.0 mg/kg/injection, schedule: Q04DX003 (ip), vehicle: saline with Tween-80
[6] = endpoint: mean survival time, dose: 200.0 mg/kg/injection, schedule: Q04DX003 (ip), vehicle: saline with Tween-80
[7] = endpoint: mean survival time, dose: 400.0 mg/kg/injection, schedule: Q04DX003 (ip), vehicle: saline with Tween-80
[8] = endpoint: mean survival time, dose: 100.0 mg/kg/injection, schedule: Q01DX009 (ip), vehicle: saline with Tween-80
[9] = endpoint: mean survival time, dose: 200.0 mg/kg/injection, schedule: Q01DX009 (ip), vehicle: saline with Tween-80
[10] = endpoint: mean survival time, dose: 400.0 mg/kg/injection, schedule: Q01DX009 (ip), vehicle: saline with Tween-80
[11] = endpoint: mean survival time, dose: 100.0 mg/kg/injection, schedule: Q04DX003 (ip), vehicle: Klucel (hydroxypropylcellulose) (HPC)
[12] = endpoint: mean survival time, dose: 200.0 mg/kg/injection, schedule: Q04DX003 (ip), vehicle: Klucel (hydroxypropylcellulose) (HPC)
[13] = endpoint: mean survival time, dose: 400.0 mg/kg/injection, schedule: Q04DX003 (ip), vehicle: Klucel (hydroxypropylcellulose) (HPC)

SMILES: O=C(O)C1C(C(=O)O)C2C=CC1C21CCCC1 (stereo not drawn)
- T/C [1]: 97 % of control
- T/C (endpoint: mean survival time, dose: 150.0 mg/kg/injection, schedule: Q01DX001 (ip), vehicle: saline): 97 % of control
- T/C (endpoint: mean survival time, dose: 300.0 mg/kg/injection, schedule: Q01DX001 (ip), vehicle: saline): 95 % of control

SMILES: CC(=O)OC1CCC2(C)C(=CCC3C2CCC2(C)c4c(-c5ccccc5)nn(-c5ccccc5)c4CC32)C1 (stereo not drawn)
- T/C (endpoint: mean survival time, dose: 12.5 mg/kg/injection, schedule: Q04DX002 (ip), vehicle: Klucel (hydroxypropylcellulose) (HPC)): 96 % of control
- T/C (endpoint: mean survival time, dose: 25.0 mg/kg/injection, schedule: Q04DX002 (ip), vehicle: Klucel (hydroxypropylcellulose) (HPC)): 96 % of control
- T/C (endpoint: mean survival time, dose: 50.0 mg/kg/injection, schedule: Q04DX002 (ip), vehicle: Klucel (hydroxypropylcellulose) (HPC)): 101 % of control

SMILES: O=[N+]([O-])c1ccc(Oc2ccc(Br)cc2)c([N+](=O)[O-])c1
- T/C (endpoint: mean survival time, dose: 100.0 mg/kg/injection, schedule: Q04DX002 (ip), vehicle: Klucel (hydroxypropylcellulose) (HPC)): 103 % of control
- T/C (endpoint: mean survival time, dose: 200.0 mg/kg/injection, schedule: Q04DX002 (ip), vehicle: Klucel (hydroxypropylcellulose) (HPC)): 93 % of control
- T/C (endpoint: mean survival time, dose: 400.0 mg/kg/injection, schedule: Q04DX002 (ip), vehicle: Klucel (hydroxypropylcellulose) (HPC)): 97 % of control

SMILES: CCOC(=O)C1(CCC#N)CC(C#N)(c2ccccc2)CCC1=O (stereo not drawn)
- T/C (endpoint: mean survival time, dose: 100.0 mg/kg/injection, schedule: Q04DX003 (ip), vehicle: acetone): 98 % of control
- T/C (endpoint: mean survival time, dose: 200.0 mg/kg/injection, schedule: Q04DX003 (ip), vehicle: acetone): 90 % of control
- T/C (endpoint: mean survival time, dose: 400.0 mg/kg/injection, schedule: Q04DX003 (ip), vehicle: acetone): 93 % of control

SMILES: O=S(=O)(O)c1ccc2c(O)cc(S(=O)(=O)O)cc2c1
- T/C (endpoint: mean survival time, dose: 100.0 mg/kg/injection, schedule: Q01DX009 (ip), vehicle: saline): 106 % of control
- T/C [2]: 95 % of control
- T/C [3]: 112 % of control
- T/C (endpoint: mean survival time, dose: 400.0 mg/kg/injection, schedule: Q01DX009 (ip), vehicle: saline): 103 % of control
- T/C [4]: 100 % of control

SMILES: CC1(C[N+](=O)[O-])CCCC(=O)C1 (stereo not drawn)
- T/C [1]: 98 % of control

SMILES: CN(CCN(C)P(=O)(N1CC1)N1CC1)P(=O)(N1CC1)N1CC1
- T/C (endpoint: mean survival time, dose: 0.62 mg/kg/injection, schedule: Q01DX Z (ip), vehicle: saline): 87 % of control
- T/C (endpoint: mean survival time, dose: 1.25 mg/kg/injection, schedule: Q01DX Z (ip), vehicle: saline): 90 % of control
- T/C (endpoint: mean survival time, dose: 2.5 mg/kg/injection, schedule: Q01DX Z (ip), vehicle: saline): 92 % of control
- T/C (endpoint: mean survival time, dose: 5.0 mg/kg/injection, schedule: Q01DX Z (ip), vehicle: saline): 108 % of control
- T/C (endpoint: mean survival time, dose: 20.0 mg/kg/injection, schedule: Q01DX Z (ip), vehicle: saline): 156 % of control

SMILES: O=S(=O)(Nc1ccccc1)c1ccccc1C(O)(c1ccccc1)c1ccccc1
- T/C (endpoint: mean survival time, dose: 100.0 mg/kg/injection, schedule: Q01DX001 (ip), vehicle: carboxymethylcellulose (CMC)): 106 % of control
- T/C (endpoint: mean survival time, dose: 200.0 mg/kg/injection, schedule: Q01DX001 (ip), vehicle: carboxymethylcellulose (CMC)): 90 % of control
- T/C (endpoint: mean survival time, dose: 400.0 mg/kg/injection, schedule: Q01DX001 (ip), vehicle: carboxymethylcellulose (CMC)): 93 % of control

SMILES: COc1cc(C(=O)Nc2ccccc2)cc(OC)c1OC
- T/C (endpoint: mean survival time, dose: 100.0 mg/kg/injection, schedule: Q04DX002 (ip), vehicle: saline with Tween-80): 102 % of control
- T/C (endpoint: mean survival time, dose: 200.0 mg/kg/injection, schedule: Q04DX002 (ip), vehicle: saline with Tween-80): 98 % of control
- T/C (endpoint: mean survival time, dose: 400.0 mg/kg/injection, schedule: Q04DX002 (ip), vehicle: saline with Tween-80): 95 % of control

SMILES: N#CCC1(O)c2ccccc2-c2ccccc21
- T/C (endpoint: mean survival time, dose: 50.0 mg/kg/injection, schedule: Q01DX001 (ip), vehicle: saline): 98 % of control
- T/C (endpoint: mean survival time, dose: 100.0 mg/kg/injection, schedule: Q01DX001 (ip), vehicle: saline): 98 % of control
- T/C (endpoint: mean survival time, dose: 200.0 mg/kg/injection, schedule: Q01DX001 (ip), vehicle: saline): 102 % of control
- T/C (endpoint: mean survival time, dose: 400.0 mg/kg/injection, schedule: Q01DX001 (ip), vehicle: saline): 96 % of control

SMILES: COc1cc(C(=O)O)cc(OC)n1
- T/C [5]: 102 % of control
- T/C [6]: 96 % of control
- T/C [7]: 96 % of control

SMILES: COC(=O)C1C(C)(C(=O)OC)N=NC1(c1ccccc1)c1ccccc1 (stereo not drawn)
- T/C (endpoint: mean survival time, dose: 100.0 mg/kg/injection, schedule: Q01DX001 (ip), vehicle: steriod suspending solution): 101 % of control
- T/C (endpoint: mean survival time, dose: 200.0 mg/kg/injection, schedule: Q01DX001 (ip), vehicle: steriod suspending solution): 104 % of control
- T/C (endpoint: mean survival time, dose: 400.0 mg/kg/injection, schedule: Q01DX001 (ip), vehicle: steriod suspending solution): 98 % of control

SMILES: O=C(COc1c(Cl)cc(Cl)cc1Cl)NCc1ccc(Cl)cc1
- T/C [8]: 100 % of control
- T/C [9]: 109 % of control
- T/C [10]: 101 % of control

SMILES: CCOC(=O)N/N=C\C(C)=N\NC(=O)OCC
- T/C (endpoint: mean survival time, dose: 15.0 mg/kg/injection, schedule: Q01DX Z (ip), vehicle: carboxymethylcellulose (CMC)): 105 % of control
- T/C (endpoint: mean survival time, dose: 30.0 mg/kg/injection, schedule: Q01DX Z (ip), vehicle: carboxymethylcellulose (CMC)): 98 % of control
- T/C (endpoint: mean survival time, dose: 60.0 mg/kg/injection, schedule: Q01DX Z (ip), vehicle: carboxymethylcellulose (CMC)): 97 % of control and 105 % of control
- T/C (endpoint: mean survival time, dose: 120.0 mg/kg/injection, schedule: Q01DX Z (ip), vehicle: carboxymethylcellulose (CMC)): 94 % of control and 97 % of control
- T/C (endpoint: mean survival time, dose: 240.0 mg/kg/injection, schedule: Q01DX Z (ip), vehicle: carboxymethylcellulose (CMC)): 96 % of control
- T/C (endpoint: mean survival time, dose: 480.0 mg/kg/injection, schedule: Q01DX Z (ip), vehicle: carboxymethylcellulose (CMC)): 87 % of control

SMILES: Cc1c2cnccc2c(C)c2c1sc1ccccc12
- T/C (endpoint: mean survival time, dose: 75.0 mg/kg/injection, schedule: Q01DX001 (ip), vehicle: other): 101 % of control
- T/C (endpoint: mean survival time, dose: 150.0 mg/kg/injection, schedule: Q01DX001 (ip), vehicle: other): 106 % of control
- T/C (endpoint: mean survival time, dose: 300.0 mg/kg/injection, schedule: Q01DX001 (ip), vehicle: other): 124 % of control

SMILES: O=c1n[n+]([O-])ccn1C1OC(CO)C(O)C1O (stereo not drawn)
- T/C (endpoint: mean survival time, dose: 100.0 mg/kg/injection, schedule: Q01DX005 (ip), vehicle: saline): 111 % of control
- T/C (endpoint: mean survival time, dose: 200.0 mg/kg/injection, schedule: Q01DX005 (ip), vehicle: saline): 111 % of control
- T/C [3]: 121 % of control
- T/C (endpoint: median survival time, dose: 200.0 mg/kg/injection, schedule: Q01DX009 (ip), vehicle: saline): 176 % of control
- T/C (endpoint: median survival time, dose: 250.0 mg/kg/injection, schedule: Q01DX009 (ip), vehicle: saline): 280 % of control
- T/C (endpoint: median survival time, dose: 300.0 mg/kg/injection, schedule: Q01DX009 (ip), vehicle: saline): 352 % of control
- T/C (endpoint: median survival time, dose: 350.0 mg/kg/injection, schedule: Q01DX009 (ip), vehicle: saline): 97 % of control
- T/C (endpoint: median survival time, dose: 400.0 mg/kg/injection, schedule: Q01DX009 (ip), vehicle: saline): 97 % of control
- T/C (endpoint: median survival time, dose: 450.0 mg/kg/injection, schedule: Q01DX009 (ip), vehicle: saline): 152 % of control

SMILES: CC(=O)Oc1cc(OC(C)=O)c(Oc2cc(OC(C)=O)c(Oc3cc(OC(C)=O)c(OC(C)=O)c(OC(C)=O)c3)c(OC(C)=O)c2)c(OC(C)=O)c1
- T/C (endpoint: mean survival time, dose: 50.0 mg/kg/injection, schedule: Q04DX003 (ip), vehicle: saline with Tween-80): 97 % of control
- T/C [5]: 95 % of control
- T/C [6]: 95 % of control

SMILES: Cc1ccc(CCO)c(C)c1
- T/C (endpoint: mean survival time, dose: 100.0 mg/kg/injection, schedule: Q01DX009 (ip), vehicle: Klucel (hydroxypropylcellulose) (HPC)): 92 % of control
- T/C [11]: 92 % of control
- T/C (endpoint: mean survival time, dose: 200.0 mg/kg/injection, schedule: Q01DX009 (ip), vehicle: Klucel (hydroxypropylcellulose) (HPC)): 94 % of control
- T/C [12]: 92 % of control
- T/C (endpoint: mean survival time, dose: 400.0 mg/kg/injection, schedule: Q01DX009 (ip), vehicle: Klucel (hydroxypropylcellulose) (HPC)): 90 % of control
- T/C [13]: 103 % of control

SMILES: COc1ccc(C(CCl)(CCl)c2ccc(OC)c(C)c2)cc1C
- T/C [8]: 90 % of control
- T/C [5]: 100 % of control
- T/C [9]: 96 % of control
- T/C [6]: 94 % of control
- T/C [10]: 86 % of control
- T/C [7]: 92 % of control

SMILES: CC(=O)NCCN
- T/C [2]: 92 % of control
- T/C [4]: 108 % of control

SMILES: CC(C(=O)c1cccs1)C(O)(C(F)(F)F)C(F)(F)F (stereo not drawn)
- T/C [11]: 95 % of control
- T/C [12]: 95 % of control
- T/C [13]: 103 % of control

SMILES: O=[N+]([O-])c1c(Cl)nc2sccn12
- T/C (endpoint: mean survival time, dose: 100.0 mg/kg/injection, schedule: Q04DX002 (ip), vehicle: saline): 106 % of control
- T/C (endpoint: mean survival time, dose: 200.0 mg/kg/injection, schedule: Q04DX002 (ip), vehicle: saline): 109 % of control
- T/C (endpoint: mean survival time, dose: 400.0 mg/kg/injection, schedule: Q04DX002 (ip), vehicle: saline): 90 % of control
